{
  "source": "paper PMC7614687",
  "about": "“Modulation of the substrate specificity of the kinase PDK1 by distinct conformations of the full-length protein*” (Science signaling, 2023)",
  "target": "T1, GST-PDK1_360-556 (Homo sapiens, UniProt O15530)",
  "T1 construct": "GST-PDK1_360-556 (GST-PDK1-Linker-PH) was cloned into the BamHI-KpnI sites in pEBG2T plasmid; made in house; host or cells: HEK293 cells (transient transfection of pEBG2T)",
  "T1 sequence (O15530 360-556)": "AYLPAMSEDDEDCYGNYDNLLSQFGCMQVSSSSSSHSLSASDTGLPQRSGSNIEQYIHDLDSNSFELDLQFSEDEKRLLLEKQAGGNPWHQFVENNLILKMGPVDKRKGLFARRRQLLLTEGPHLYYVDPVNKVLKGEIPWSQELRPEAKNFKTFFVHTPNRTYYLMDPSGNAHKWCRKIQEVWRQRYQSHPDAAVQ",
  "experiment": "AlphaScreen biotin-PIP3 / GST-PDK1_360-556 (linker-PH domain) displacement",
  "type": "binding",
  "conditions": "relative to 5 nM on GST-PDK1_1-556",
  "description": "The AlphaScreen® assay was performed following the general guidelines from the manufacturer (Perkin Elmer) ([29]). In short, the assay was performed in a final volume of 25 μl in white 384-well microtiter plates (Greiner) in a standard buffer containing 50 mM Tris-HCl (pH 7.4), 100 mM NaCl, 2 mM DTT, 0.01% (v/v) Tween-20 and 0.1% (w/v) BSA, with the addition of 5 μl of beads (anti-GST coated acceptor beads and streptavidin-coated donor beads; nickel chelate-coated acceptor beads and streptavidin-coated donor beads; or nickel chelate-coated acceptor beads and GSH-coated donor beads, 20 μg/ml final concentrations for each bead type). […]\nThe conditions for each AlphaScreen assay were identified in cross-titration experiments for each interaction to choose the ideal pair of concentrations within the linear range of the interactions. […] His-PDK1 and GST-fusion protein in the presence or absence of the different compounds were incubated in the dark for 60 min at room temperature and the emission of light from the acceptor beads was measured in an EnVision reader (Perkin Elmer) or Spark plate reader (Tecan). […]\nBiotin-PIP3 interactions with GST-PDK1_1-556 or GST-PDK1_360-556 were assessed in the standard buffer. […]",
  "data": [
    {"compound": "CCCCO[C@H]1[C@@H](OP(=O)(O)O)[C@H](OP(=O)(O)O)[C@@H](OP(=O)(O)O)[C@H](OP(=O)(O)O)[C@H]1OP(=O)(O)O", "note": "[HYG14, 2-O-butyl-IP5]", "values": [
      {"measurement": "fold higher concentration needed for similar displacement of PIP3 from GST-linker-PH domain than from GST-PDK1_1-556", "value": "more than 1000 fold"}
    ]}
  ]
}
